Measurements published in patent US20180273538A1, “PYRROLO[2,3-d]PYRIMIDINE DERIVATIVES, A PROCESS FOR THEIR PREPARATION AND PHARMACEUTICAL COMPOSITIONS CONTAINING THEM” (LES LABORATOIRES SERVIER, priority 2015, published 2018).

Biological target: T1, His-TEV-DYRK1A Kinase domain (aa127-485) (Homo sapiens, UniProt Q13627)
T1 construct: His-TEV-DYRK1A Kinase domain (aa127-485); His (N); TEV cleavage site (N)
Test: Kinase ADP assay (ADP Hunter Plus)
Type: biochemical

Row | IC50 [µM] | SMILES
1 | 0.043 | Cc1nc(OCC2CCCO2)c2c(-c3ccncc3)c[nH]c2n1 (centres unmarked) [Example 14, 2-methyl-5-(pyridin-4-yl)-4-(tetrahydrofuran-2-ylmethoxy)-7H-pyrrolo[2,3-d]pyrimidine]
2 | 0.512 | Cc1nc(N2CCc3nccnc3C2)c2c(-c3cc(N)nc(N)c3)c[nH]c2n1 [Example 142, 4-[4-(7,8-dihydropyrido[3,4-b]pyrazin-6(5H)-yl)-2-methyl-7H-pyrrolo[2,3-d]pyrimidin-5-yl]pyridine-2,6-diamine]
3 | 0.407 | COC1CCCN(c2nc(C)nc3[nH]cc(-c4ccnc(N)c4)c23)C1 (centres unmarked) [Example 138, 4-[4-(3-methoxypiperidin-1-yl)-2-methyl-7H-pyrrolo[2,3-d]pyrimidin-5-yl]pyridin-2-amine]
4 | 0.025 | Cc1nc(OCc2cccs2)c2c(-c3ccnc(N)c3)c[nH]c2n1 [Example 19, 4-[2-methyl-4-(thiophen-2-ylmethoxy)-7H-pyrrolo[2,3-d]pyrimidin-5-yl]pyridin-2-amine]
5 | 0.196 | Cc1nc(CN2CCC(F)(F)C2)c2c(-c3ccnc(N)c3)c[nH]c2n1 [Example 176]
6 | 0.242 | Cc1cc(-c2cncc(F)c2)c2c(-c3ccnc(N)c3)c[nH]c2n1 [Example 214, 4-[4-(5-fluoropyridin-3-yl)-6-methyl-1H-pyrrolo[2,3-b]pyridin-3-yl]pyridin-2-amine]
7 | 0.278 | Cc1nc(NCc2cccnc2)c2c(-c3ccnc(N)c3)c[nH]c2n1 [Example 34, 5-(2-aminopyridin-4-yl)-2-methyl-N-(pyridin-3-ylmethyl)-7H-pyrrolo[2,3-d]pyrimidin-4-amine]
8 | 0.07 | Cc1nc(C2CCc3ccccc3C2)c2c(-c3ccnc(N)c3)c[nH]c2n1 (centres unmarked) [Example 188]
9 | 0.045 | Cc1nc(NCc2cccc(F)c2)c2c(-c3ccnc(N)c3)c[nH]c2n1 [Example 50, 5-(2-aminopyridin-4-yl)-N-(3-fluorobenzyl)-2-methyl-7H-pyrrolo[2,3-d]pyrimidin-4-amine]
10 | 0.039 | Cc1nc(OCC2CC2)c2c(-c3ccncc3)c[nH]c2n1 [Example 7, 4-(cyclopropylmethoxy)-2-methyl-5-(pyridin-4-yl)-7H-pyrrolo[2,3-d]pyrimidine]
11 | 1.37 | Cc1nc(OCCN2CCCCC2)c2c(-c3ccncc3)c[nH]c2n1 [Example 13, 2-methyl-4-[2-(piperidin-1-yl)ethoxy]-5-(pyridin-4-yl)-7H-pyrrolo[2,3-d]pyrimidine]
12 | 1.06 | Cc1nc(N2CCOC(C)C2)c2c(-c3cc(N)nc(N)c3)c[nH]c2n1 (centres unmarked) [Example 143, 4-[2-methyl-4-(2-methylmorpholin-4-yl)-7H-pyrrolo[2,3-d]pyrimidin-5-yl]pyridine-2,6-diamine]
13 | 0.014 | COc1cc(F)cc(-c2nc(C)nc3[nH]cc(-c4ccnc(N)c4)c23)c1 [Example 162, 4-[4-(3-fluoro-5-methoxyphenyl)-2-methyl-7H-pyrrolo[2,3-d]pyrimidin-5-yl]pyridin-2-amine]
14 | 0.372 | Cc1cc(-c2c[nH]c3nc(C)nc(NCc4cc(C)on4)c23)ccn1 [Example 47, 2-methyl-N-[(5-methyl-1,2-oxazol-3-yl)methyl]-5-(2-methylpyridin-4-yl)-7H-pyrrolo[2,3-d]pyrimidin-4-amine]
15 | 0.034 | Cc1nc(N2CCC3(CCCCC3)CC2)c2c(-c3ccnc(N)c3)c[nH]c2n1 [Example 101, 4-[4-(3-azaspiro[5.5]undec-3-yl)-2-methyl-7H-pyrrolo[2,3-d]pyrimidin-5-yl]pyridin-2-amine]
16 | 0.062 | Cc1nc(N(C)C)c2c(-c3ccnc(N)c3)c[nH]c2n1 [Example 29, 5-(2-aminopyridin-4-yl)-N,N,2-trimethyl-7H-pyrrolo[2,3-d]pyrimidin-4-amine]
17 | 0.01 | Cc1nc(-c2cccc(C(F)(F)F)c2)c2c(-c3ccnc(N)c3)c[nH]c2n1 [Example 168, 4-{2-methyl-4-[3-(trifluoromethyl)phenyl]-7H-pyrrolo[2,3-d]pyrimidin-5-yl}pyridin-2-amine]
